Assay results published in US20080045525A1, “Piperazinyl-Pyridine Analogues” (priority 2004, published 2008).

target: T1, human capsaicin receptor (Homo sapiens, UniProt Q8NER1); experiment: Calcium mobilization assay, agonist response (capsaicin positive control); assay type: cell-based; settings: capsaicin as positive control in cells expressing human capsaicin receptor; read-out: approximate EC90 concentration
T1 construct: transfected with the pBK-CMV expression construct encoding the full length human capsaicin receptor; expressed in transfected cells
Description: Cells transfected with expression plasmids (as described in Example 4) and thereby expressing human capsaicin receptor are seeded and grown to 70-90% confluency in FALCON black-walled, clear-bottomed 96-well plates (#3904, BECTON-DICKINSON, Franklin Lakes, N.J.). The culture medium is emptied from the 96 well plates and FLUO-3 AM calcium sensitive dye (Molecular Probes, Eugene, Oreg.) is added to each well (dye solution: 1 mg FLUO-3 AM, 440 μL DMSO and 440 μl 20% pluronic acid in DMSO, diluted 1:250 in Krebs-Ringer HEPES (KRH) buffer (25 mM HEPES, 5 mM KCl, 0.96 mM NaH2PO4, 1 mM MgSO4, 2 mM CaCl2, 5 mM glucose, 1 mM probenecid, pH 7.4), 50 μl diluted solution per well). […]
To measure the ability of a test compound to agonize or antagonize a calcium mobilization response in cells expressing capsaicin receptors to capsaicin or other vanilloid agonist, the EC50 of the agonist capsaicin is first determined. […] Capsaicin-induced calcium mobilization is monitored using either FLUOROSKAN ASCENT (Labsystems; Franklin, Mass.) or FLIPR (fluorometric imaging plate reader system; Molecular Devices, Sunnyvale, Calif.) instruments. […] In this equation, y is the maximum fluorescence signal, x is the concentration of the agonist or antagonist (in this case, capsaicin), a is the Emax, b corresponds to the EC50 value and c is the Hill coefficient. […]

T1 sequence (Q8NER1 whole entry): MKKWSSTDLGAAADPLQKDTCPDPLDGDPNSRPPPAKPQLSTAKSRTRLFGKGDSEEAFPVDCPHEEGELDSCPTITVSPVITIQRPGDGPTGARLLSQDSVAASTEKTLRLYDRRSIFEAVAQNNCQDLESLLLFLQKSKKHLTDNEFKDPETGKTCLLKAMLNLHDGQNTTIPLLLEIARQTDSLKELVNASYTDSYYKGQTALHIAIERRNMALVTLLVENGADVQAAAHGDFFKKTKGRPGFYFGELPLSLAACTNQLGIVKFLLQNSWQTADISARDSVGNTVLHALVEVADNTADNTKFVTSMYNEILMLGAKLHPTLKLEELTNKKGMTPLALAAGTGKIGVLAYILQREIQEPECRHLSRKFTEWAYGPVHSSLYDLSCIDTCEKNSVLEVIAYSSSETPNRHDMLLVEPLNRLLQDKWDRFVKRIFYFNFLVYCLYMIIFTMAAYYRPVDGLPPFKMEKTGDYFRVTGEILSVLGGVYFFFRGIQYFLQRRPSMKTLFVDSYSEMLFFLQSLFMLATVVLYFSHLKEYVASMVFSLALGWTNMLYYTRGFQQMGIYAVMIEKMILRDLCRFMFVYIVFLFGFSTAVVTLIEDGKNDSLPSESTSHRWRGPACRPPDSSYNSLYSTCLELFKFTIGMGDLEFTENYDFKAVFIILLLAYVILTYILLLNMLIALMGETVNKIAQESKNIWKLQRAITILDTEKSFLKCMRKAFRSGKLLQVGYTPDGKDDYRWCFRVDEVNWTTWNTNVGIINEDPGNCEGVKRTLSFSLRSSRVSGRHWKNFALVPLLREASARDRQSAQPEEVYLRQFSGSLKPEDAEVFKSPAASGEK

SMILES | EC90 [nM]
COc1cc(CNC(=O)CCCC/C=C/C(C)C)ccc1O [capsaicin] | ~100

target: VR; experiment: not given; settings: typical value, non-selective cation channel blocker; cited from earlier work

SMILES | Ki [nM]
Cl.Cl.Cl.Cl.Cl.Cl.N.N.N.N.N.N.N.N.N.N.N.N.N.N.[O-2].[O-2].[Ru+3].[Ru+3].[Ru+4] [ruthenium red] | ≥ 140000

target: T1, human capsaicin receptor; experiment: Calcium mobilization assay, determination of antagonist activity; assay type: cell-based; settings: cells expressing human capsaicin receptor; capsaicin at its EC50; FLUO-3 fluorescence
Description: A cDNA encoding full length human capsaicin receptor (SEQ ID NO:1, 2 or 3 of U.S. Pat. No. 6,482,611) was subcloned in the plasmid pBK-CMV (Stratagene, La Jolla, Calif.) for recombinant expression in mammalian cells.
Human embryonic kidney (HEK293) cells were transfected with the pBK-CMV expression construct encoding the full length human capsaicin receptor using standard methods. The transfected cells were selected for two weeks in media containing G418 (400 μg/ml) to obtain a pool of stably transfected cells. Independent clones were isolated from this pool by limiting dilution to obtain clonal stable cell lines for use in subsequent experiments.
Cells transfected with expression plasmids (as described in Example 4) and thereby expressing human capsaicin receptor are seeded and grown to 70-90% confluency in FALCON black-walled, clear-bottomed 96-well plates (#3904, BECTON-DICKINSON, Franklin Lakes, N.J.). The culture medium is emptied from the 96 well plates and FLUO-3 AM calcium sensitive dye (Molecular Probes, Eugene, Oreg.) is added to each well (dye solution: 1 mg FLUO-3 AM, 440 μL DMSO and 440 μl 20% pluronic acid in DMSO, diluted 1:250 in Krebs-Ringer HEPES (KRH) buffer (25 mM HEPES, 5 mM KCl, 0.96 mM NaH2PO4, 1 mM MgSO4, 2 mM CaCl2, 5 mM glucose, 1 mM probenecid, pH 7.4), 50 μl diluted solution per well). Plates are covered with aluminum foil and incubated at 37° C. for 1-2 hours in an environment containing 5% CO2. After the incubation, the dye is emptied from the plates, and the cells are washed once with KRH buffer, and resuspended in KRH buffer.
To measure the ability of a test compound to agonize or antagonize a calcium mobilization response in cells expressing capsaicin receptors to capsaicin or other vanilloid agonist, the EC50 of the agonist capsaicin is first determined. An additional 20 μl of KRH buffer and 1 μl DMSO is added to each well of cells, prepared as described above. 100 μl capsaicin in KRH buffer is automatically transferred by the FLIPR instrument to each well. Capsaicin-induced calcium mobilization is monitored using either FLUOROSKAN ASCENT (Labsystems; Franklin, Mass.) or FLIPR (fluorometric imaging plate reader system; Molecular Devices, Sunnyvale, Calif.) instruments. Data obtained between 30 and 60 seconds after agonist application are used to generate an 8-point concentration response curve, with final capsaicin concentrations of 1 nM to 3 μM. […] software (Synergy Software, Reading, Pa.) is used to fit the data to the equation: y=a*(1/(1+(b/x)^c)) to determine the 50% excitatory concentration (EC50) for the response. In this equation, y is the maximum fluorescence signal, x is the concentration of the agonist or antagonist (in this case, capsaicin), a is the Emax, b corresponds to the EC50 value and c is the Hill coefficient. Determination of Agonist Activity
Test compounds are dissolved in DMSO, diluted in 20 μl KRH buffer so that the final concentration of test compounds in the assay well is between 1 μM and 5 μM, and added to cells prepared as described above. The 96 well plates containing prepared cells and test compounds are incubated in the dark, at room temperature for 0.5 to 6 hours. It is important that the incubation not continue beyond 6 hours. Just prior to determining the fluorescence response, 100 μl capsaicin in KRH buffer at twice the EC50 concentration determined as described above is automatically added by the FLIPR instrument to each well of the 96 well plate for a final sample volume of 200 μl and a final capsaicin concentration equal to the EC50. The final concentration of test compounds in the assay wells is between 1 μM and 5 μM.

SMILES | IC50 [nM]
OCCC1CCN(c2cc(N3CCN(c4ncccc4C(F)(F)F)CC3)nc(N3CCOCC3)n2)CC1 [2-[1-(2-morpholin-4-yl-6-{4-[3-(trifluoromethyl)pyridin-2-yl]piperazin-1-yl}pyrimidin-4-yl)piperidin-4-yl]ethanol] | ≤ 1000
FC(F)(F)c1cccnc1N1CCN(c2cc(N3CCOCC3)nc(N3CCOCC3)n2)CC1 [4,4′-(6-{4-[3-(trifluoromethyl)pyridin-2-yl]piperazin-1-yl}pyrimidine-2,4-diyl)dimorpholine] | ≤ 1000
FC(F)(F)c1cccnc1N1CCN(c2cc(N3CCCCC3)nc(N3CCOCC3)n2)CC1 [4-(4-piperidin-1-yl-6-{4-[3-(trifluoromethyl)pyridin-2-yl]piperazin-1-yl}pyrimidin-2-yl)morpholine] | ≤ 1000
FC(F)(F)c1cccnc1N1CCN(c2cc(N3CCCC3)nc(N3CCOCC3)n2)CC1 [4-(4-pyrrolidin-1-yl-6-{4-[3-(trifluoromethyl)pyridin-2-yl]piperazin-1-yl}pyrimidin-2-yl)morpholine] | ≤ 1000
Cc1cc(C(=O)O)cnc1N1CCN(c2cc(N3CCCCC3)nc(N3CCCC3C)n2)[C@H](C)C1 (stereo partly shown) [5-methyl-6-{3-methyl-4-[2-(2-methylpyrrolidin-1-yl)-6-piperidin-1-ylpyrimidin-4-yl]piperazin-1-yl}nicotinic acid] | ≤ 1000
Cc1cc(CO)cnc1N1CCN(c2cc(N3CCCCC3)nc(N3CCCC3C)n2)[C@H](C)C1 (stereo partly shown) [(5-methyl-6-{3-methyl-4-[2-(2-methylpyrrolidin-1-yl)-6-piperidin-1-ylpyrimidin-4-yl]piperazin-1-yl}pyridin-3-yl)methanol] | ≤ 1000
CCOC(=O)c1cnc(N2CCN(c3cc(N4CCCCC4)nc(N4CCCC4C)n3)[C@H](C)C2)c(C)c1 (stereo partly shown) [ethyl 5-methyl-6-{3-methyl-4-[2-(2-methylpyrrolidin-1-yl)-6-piperidin-1-ylpyrimidin-4-yl]piperazin-1-yl}nicotinate] | ≤ 1000

The remaining lines, values ahead:

IC50 [nM] | SMILES
≤ 1000 | Fc1ccc2c(c1)CCN2c1cc(N2CCN(c3ncccc3C(F)(F)F)CC2)nc(N2CCOCC2)n1 [5-fluoro-1-(2-morpholin-4-yl-6-{4-[3-(trifluoromethyl)pyridin-2-yl]piperazin-1-yl}pyrimidin-4-yl)indoline]
≤ 1000 | Cc1cc(C(N)=O)cnc1N1CCN(c2cc(N3CCCCC3)nc(N3CCCC3C)n2)[C@H](C)C1 (stereo partly shown) [5-methyl-6-{3-methyl-4-[2-(2-methylpyrrolidin-1-yl)-6-piperidin-1-ylpyrimidin-4-yl]piperazin-1-yl}nicotinamide]
≤ 1000 | Cc1cc(C(=O)O)cnc1N1CCN(c2cc(N3CCC(F)CC3)nc(N3CCCC3C)n2)[C@H](C)C1 (stereo partly shown) [6-{4-[6-(4-fluoropiperidin-1-yl)-2-(2-methylpyrrolidin-1-yl)pyrimidin-4-yl]-3-methylpiperazin-1-yl}-5-methylnicotinic acid]
≤ 1000 | FC(F)(F)c1cccnc1N1CCN(c2cc(N3CCC4(CC3)OCCO4)nc(N3CCOCC3)n2)CC1 [8-(2-morpholin-4-yl-6-{4-[3-(trifluoromethyl)pyridin-2-yl]piperazin-1-yl}pyrimidin-4-yl)-1,4-dioxa-8-azaspiro[4.5]decane]
